Patent publication US8748482B2, “Lubiprostone crystal, the use and the method for the preparation thereof” (Shanghai Techwell Biopharmaceutical Co., Ltd, priority 2008, dated 2014)

Assay: Comparison of the stability: samples sealed and placed at 40° C. for 7 days, then impurities analysed
Format: physicochemical
Conditions: for Initial Product Amount: before storage (initial); for Product Amount (after 7 days at 40° C.): sealed
Method: In the present Example, the stabilities of the oily lubiprostone (prepared according to Example 1) and the final products of Example 1 and Example 2 (crystal samples) were tested, and the results of the tests were compared. Oily lubiprostone, the sample of Example 1, and the sample of Example 2 were separately sealed and placed at 40° C. for 7 days. After completion, the amount of the impurities was analyzed.

Row | SMILES | Initial Product Amount | Product Amount (after 7 days at 40° C.) | stability (conclusion in words) (based on the data of Table 2 (sealed, 40° C., 7 days))
1 | CCCCC(F)(F)[C@@]1(O)CCC2[C@@H](CC(=O)[C@@H]2CCCCCCC(=O)O)O1 (single isomer, unassigned; (-)) [Example 2] | 100.0% | 99.9% | 
2 | CCCCC(F)(F)[C@@]1(O)CCC2[C@@H](CC(=O)[C@@H]2CCCCCCC(=O)O)O1 (single isomer, unassigned; (-)) [lubiprostone crystal] |  |  | excellent stability
3 | CCCCC(F)(F)[C@@]1(O)CCC2[C@@H](CC(=O)[C@@H]2CCCCCCC(=O)O)O1 (single isomer, unassigned; (-)) [Example 1] | 100.0% | 99.9% | 
4 | CCCCC(F)(F)[C@@]1(O)CCC2[C@@H](CC(=O)[C@@H]2CCCCCCC(=O)O)O1 (single isomer, unassigned; (-)) [Oily lubiprostone, reference compound] | 99.9% | 95.8% | 
